# Results published in patent US6565830B1, “DTPA monoamides, pharmaceutical agents containing these compounds, their use and process for their production” (Schering Aktiengesellschaft, priority 1990, dated 2003).
# Legend:
# liver = test: In vivo NMR diagnosis (MRI) after oral administration, rat; settings: p.o. 0.5 mmol of Gd/kg
# Excerpt: This finding agrees very well with the pharmacokinetic data.
# Brown-Pearce tumor = test: In vivo NMR diagnosis (MRI) after intravenous administration, rat with Brown-Pearce tumor in the liver; settings: i.v. 0.1 mmol of Gd/kg
# Procedure: A cell suspension of the Brown-Pearce tumor was injected in the liver in a test animal (rat, strain lew/mol, female, 155 g) two weeks before the test. In the method used, about 2 weeks were required until the tumor had reached the size of 0.5-1 cm^3 desired for the test.
# For the test, the animal was anesthetized (Rompun+Ketavet) and then a catheter was placed in the caudal vein for the administration of the contrast medium.
# The imaging took place in an MRI experimental device of the General Electric company (field strength 2 teslas). The first image was made without contrast media with a T1-weighted spin echo sequence (TR=400 msec, TE=20 msec, layer thickness 3 mm).
# human serum albumin = human serum albumin (Homo sapiens, UniProt P02768); test: Association with human serum albumin in aqueous solution; format: binding
# [1] = cited from earlier work
# Sequence of human serum albumin (P02768 25-609): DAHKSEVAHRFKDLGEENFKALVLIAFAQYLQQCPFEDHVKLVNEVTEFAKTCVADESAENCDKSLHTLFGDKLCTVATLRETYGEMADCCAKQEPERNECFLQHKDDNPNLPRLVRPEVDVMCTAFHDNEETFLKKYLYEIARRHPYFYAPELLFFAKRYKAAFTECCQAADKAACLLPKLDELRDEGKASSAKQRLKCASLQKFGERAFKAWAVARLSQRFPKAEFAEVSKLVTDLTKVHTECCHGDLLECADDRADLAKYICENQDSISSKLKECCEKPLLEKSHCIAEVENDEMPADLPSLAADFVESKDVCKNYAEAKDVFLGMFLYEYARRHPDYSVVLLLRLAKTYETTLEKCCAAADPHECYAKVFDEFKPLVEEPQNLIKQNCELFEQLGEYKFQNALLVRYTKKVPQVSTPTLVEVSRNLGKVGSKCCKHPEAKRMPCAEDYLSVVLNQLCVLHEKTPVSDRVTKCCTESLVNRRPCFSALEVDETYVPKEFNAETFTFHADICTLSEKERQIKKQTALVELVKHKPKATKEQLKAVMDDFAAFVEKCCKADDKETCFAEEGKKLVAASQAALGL
compound,measurement,setting,value
"O=C(O)CCCCCCCCCCNC(=O)CN(CCN(CCN(CC(=O)O)CC(=O)O)CC(=O)O)CC(=O)O.[Gd] [Example 1b, Gadolinium complex of 3,6-bis(carboxymethyl)-9-(10-carboxydecylcarbamoylmethyl)-3,6,9-triazaundecanedioic acid]",resorption after oral administration,liver,resorbed in the small intestine after oral administration and is immediately taken up again for the most part by the liver
same,signal in the liver in MRI image,liver; 45 minutes after administration (image 3),slight increase in the signal in the liver
same,enhancement in the liver in MRI image,liver; 180 minutes after administration (image 4),marked enhancement
same,secretion in the stomach,Brown-Pearce tumor,secreted in the stomach
same,distribution of contrast medium between liver and tumor,Brown-Pearce tumor; 60 minutes,"concentrated in the liver to a great extent, but, not in the tumor"
same,enhancement of the stomach in MRI image,Brown-Pearce tumor; 60 minutes (image no. 2),very strong enhancement
same,appearance of liver tumor in MRI image,Brown-Pearce tumor; 60 minutes after administration,considerably darker in comparison with the surrounding liver tissue
same,signal intensity of liver parenchyma in MRI image,"Brown-Pearce tumor; 60 minutes after administration, T1-weighted spin echo, 2 teslas",very bright
"CCCCCCC(CCCCCCCCCCC(=O)O)NC(=O)CN(CCN(CCN(CC(=O)O)CC(=O)O)CC(=O)O)CC(=O)O.[Gd] (centres unmarked) [Example 4b, Gadolinium complex of 3,6-bis(carboxymethyl)-9-(11-carboxy-1-n-hexyl-undecylcarbamoylmethyl)-3,6,9-triazaundecanedioic acid]",association with human serum albumin,human serum albumin,forms associates
"CNC[C@H](O)[C@@H](O)[C@H](O)[C@H](O)CO.CNC[C@H](O)[C@@H](O)[C@H](O)[C@H](O)CO.O=C([O-])CN(CCN(CC(=O)[O-])CC(=O)O)CCN(CC(=O)[O-])CC(=O)O.[Gd+3] [Magnevist, gadolinium(III) complex of diethylenetriaminepentaacetic acid]",distribution after intravenous injection,[1],spreads extracellularly
same,route of elimination after intravenous injection,[1],eliminated by glomerular secretion through the kidneys
